Earlier results as cited in US5317003A, “Herbicidal compositions comprising glyphosate salts and alkoxylated quaternary amine surfactants” (Monsanto Company, priority 1992, dated 1994).

## O=C(O)CNCP(=O)(O)O [N-phosphonomethylglycine]
  solubility in water: relatively insoluble
